Key:
human CB1 receptor = biological target: T1, human CB1 receptor (Homo sapiens, UniProt P21554); experiment: Human CB1 receptor binding assay ([3H]CP55940, membranes of CB1R-expressing CHO cells); details: [3H]CP55940 0.5 nM
T1 construct: expressed in transfected cells

human CB2 receptor = biological target: T2, human CB2 receptor (Homo sapiens, UniProt P34972); experiment: Human CB2 receptor binding inhibition ([3H]CP55940, membranes of CB2R-expressing CHO cells)
T2 construct: The coding region of human CB2 receptor (CB2R) cDNA (Munro etc, Nature, 1993, 365, 61-65) was inserted into the mammalian expression vector; expressed in transfected cells
T2 sequence (P34972 whole entry): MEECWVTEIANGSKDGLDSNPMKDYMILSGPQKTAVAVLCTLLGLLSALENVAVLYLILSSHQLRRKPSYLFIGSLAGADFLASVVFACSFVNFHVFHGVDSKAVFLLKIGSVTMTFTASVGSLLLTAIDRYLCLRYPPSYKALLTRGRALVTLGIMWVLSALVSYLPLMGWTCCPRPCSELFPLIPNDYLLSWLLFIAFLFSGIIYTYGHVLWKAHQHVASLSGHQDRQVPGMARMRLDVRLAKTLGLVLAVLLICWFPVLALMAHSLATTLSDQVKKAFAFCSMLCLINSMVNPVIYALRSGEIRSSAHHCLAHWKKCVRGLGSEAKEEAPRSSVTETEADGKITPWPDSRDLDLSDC

T1 sequence (P21554 whole entry): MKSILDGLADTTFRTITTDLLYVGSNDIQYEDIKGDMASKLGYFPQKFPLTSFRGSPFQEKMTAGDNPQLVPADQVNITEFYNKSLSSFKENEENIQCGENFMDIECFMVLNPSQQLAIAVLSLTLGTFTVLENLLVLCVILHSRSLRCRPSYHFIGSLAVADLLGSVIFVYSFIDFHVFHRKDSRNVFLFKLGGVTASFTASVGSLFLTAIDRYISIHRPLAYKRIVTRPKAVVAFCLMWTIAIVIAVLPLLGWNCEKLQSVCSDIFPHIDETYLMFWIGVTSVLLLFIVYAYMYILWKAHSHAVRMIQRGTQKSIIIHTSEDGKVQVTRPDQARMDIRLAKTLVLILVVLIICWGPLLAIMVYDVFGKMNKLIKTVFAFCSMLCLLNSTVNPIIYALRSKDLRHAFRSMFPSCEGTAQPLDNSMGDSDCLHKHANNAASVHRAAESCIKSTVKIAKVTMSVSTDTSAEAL

Row | SMILES | melting point [°C] | Ki (human CB1 receptor) [nM] | Ki (human CB2 receptor) [nM]
1 | CCCCn1c(C)c(C)cc(NC(=O)c2ccccc2C)c1=O [Example 5-006] | – | 390 | –
2 | CCCCn1c2c(cc(C(=O)NCCc3ccc(N)cc3)c1=O)CCCC2 [Example 4-003] | – | 680 | 44
3 | CCCCn1c(C)c(C)cc(NC(=O)c2ccccc2Cl)c1=O [Example 5-005] | – | 391 | –

The next lines start with results.

Row | melting point [°C] | SMILES | Ki (human CB1 receptor) [nM] | Ki (human CB2 receptor) [nM]
4 | 245 to 247 | Cc1ccc(Oc2nc3ccccc3o2)c(=S)n1C | – | –
5 | 129 to 130 | CCCCn1c(C)c(C)cc(NC(=O)c2ccc(F)cc2)c1=O | – | –
6 | 117 | CCn1c(C)c(C)cc(C(=O)NCc2ccccc2)c1=O | – | –

Reference: patent publication US8088924B2, “Pyridone derivatives having a binding activity to the cannabinoid type 2 receptor” (Shionogi & Co., Ltd., priority 2000, dated 2012)
